One data set has as its system Murine thymocytes. Description: Dexamethasone-induced thymocyte apoptosis assay (DiOC6/PI staining, flow cytometry). It counts as cell-based. The note with it: Mus musculus, 6 hours; for viability at 10 µM: compound 10 μM; for viability at 10 µM / viability at 5 µM: challenged with DEX, control 72 ± 4, DEX alone 36 ± 7, read-out: Average cell survival (%) Average alive cells (%); for viability at 5 µM: compound tested at 5 μM (footnote b); for EC50: 5 μM dexamethasone. The protocol: All of the compounds were screened in the thymocyte assay for cytotoxicity and their ability to prevent dexamethasone-induced cell death. Murine thymocytes were exposed to 10 μM or 5 μM of each compound in the presence or absence of DEX for six hours and then assayed for their in vitro viability by 3,3′-dihexyloxacarbocyanine iodide (DiOC6) and propidium iodide (PI) staining, and flow cytometry. When cell death signals converge on the mitochondria, there is a loss of the inner mitochondrial membrane potential and cells can no longer retain the dye DiOC6 as an indicator of apoptosis. Once cells lose the integrity of the outer cell membrane, then the dye propidium iodide is no longer excluded from these cells. The percentage of viable cells, which retained DiOC6 and excluded PI was compared to cells treated with DEX alone.
Apoptosis assays. Thymocytes were harvested from young C57B1/6 mice and cultured at 37° C. in 5% CO2 in RPMI 1640 containing 10% FBS, 1% Penicillin/Streptomycin (Gibco BRL, Rockville, Md.). Thymocytes were plated at a density of 10^7 cells/mL and pre-incubated with 5-10 μM of each compound (from 10 mM stock in DMSO) for 30 minutes before induction of apoptosis. Apoptosis was induced with 5 μM dexamethasone or by exposure to 6 Gy gamma radiation. After 6 hours, cell apoptosis was assayed by propidium iodide (PI) and 3,3′ dihexyloxacarbocyanine iodide (DiOC6) staining. The cells were removed from the plate and incubated for 30 minutes in medium with 40 nM DiOC6 and 5 μg/mL PI and then analyzed by flow cytometry in a FACS caliber (Beckton-Dickinson, San Jose, Calif.). Viable cells had high DiOC6 (FL-1) and low PI (FL-3), whereas apoptotic cells had low DiOC6 (FL-1) and low PI (FL-3). To evaluate the EC50s the thymocytes were pre-exposed to graded concentrations of selected compounds for 30 minutes and then apoptosis was induced with 5 μM dexamethasone. After 6 hours the cells were harvested and stained as above.
The concentration (EC50) of each compound that inhibited dexamethasone-induced cell death by 50% was determined by nonlinear regression fitting of the data to a one-site model. Pseudo Hill slopes were determined by nonlinear regression fit of the data to a sigmoidal dose-response equation (variable slope): % viability=minimum % viability+(maximum−minimum % viability)/[1+10(log EC50−X)^n], where X is the logarithm of inhibitor concentration, and n is the pseudo Hill slope and the maximum and minimum % viability were experimentally determined after dexamethasone exposure and drug treatment. EC50 values and 95% confidence intervals (CI) were derived from the sigmoid fits to the percent control transformed data shown using GraphPad Prism version 4.0b for Macintosh (GraphPad Software, San Diego, Calif.).
(In general: A flow cytometer gives signals particle by particle.)

For data set [1], the system named is Bax, PUMA, noxa, DR5 (killer) mRNA. The data set is described as follows: Modulation of proapoptotic genes by real time PCR in DEX-treated thymocytes. It counts as cell-based, mouse. The procedure:
Four proapoptotic genes were tested by real time PCR. […] PUMA and noxa belong to the BH3-only protein subclass while Bax is a multidomain member of the family. DR5 (also called killer) is an apoptosis-inducing membrane receptor for tumor necrosis factor-related apoptosis-inducing ligand (also called TRAIL and Apo2 ligand). DR5 is a transcriptional target of p53, and its over expression induces cell death in vitro (Finnberg et al., Molecular and Cellular Biology 2005, 25, 2000-2013).
In general terms: Quantitative PCR measures a nucleic acid by following its amplification.

The test system of data set [2] is spontaneous apoptosis and fludarabine-induced apoptosis. Description: Protection against spontaneous and fludarabine-induced apoptosis (FIG. 2). It counts as cell-based.
The next data set relates to PUMA. The data set is described as follows: PUMA protein expression in DEX-treated thymocytes (western blot). It counts as cell-based, mouse. The note with it: thymocytes pretreated with 10 μM compound, 5 μM dexamethasone 6 hours, FIG. 6. The procedure:
Thymocytes were pretreated with 10 μM of the indicated compounds and then exposed to 5 μM of dexamethasone for 6 hours. The cytosolic proteins were fractionated and then separated on a 4-12% gradient gel by SDS-PAGE and transferred to a PDVF membrane, which was probed with antibodies to PUMA and actin.
After removal of medium, cells were disrupted in lysis buffer (10 mM HEPES pH 7.9, 10 mM KCl, 0.1 mM EDTA, 0.1 mM EGTA, 1 mM dithiothreitol, 0.5 mM phenylmethylsulfonyl fluoride, and 0.6% NP-40) on ice. The nuclei were separated by centrifugation and the cytoplasmic sample removed. The nuclear pellets were resuspended in (20 mM HEPES pH 7.9, 0.4 M NaCl, 1.0 mM EDTA, 1.0 mM EGTA, 1 mM dithiothreitol, 0.1 mM phenylmethylsulfonyl fluoride) and the insoluble material was removed by centrifugation. The samples were heated to 70° C. for 10 minutes in loading buffer with 10 mM DTT. Each lane of an SDS-PAGE gel was loaded with 20 μg of protein. After electrophoresis, the proteins were transferred to a polyvinylidene difluoride (PVDF) membrane, blocked with 2% I-block™ (Tropix Inc, Bedford, Mass.) containing 0.05% Tween-20 in PBS, and then incubated with anti-PUMA (AbCam, Inc., Cambridge, Mass.). Horseradish peroxidase-conjugated anti-IgG (Santa Cruz Laboratories, Santa Cruz, Calif.) was used as the secondary antibody. […]
For orientation: A western blot detects proteins with antibodies after separation by electrophoresis.

The conditions of data set [3]: cited from earlier work.
Where [4] appears, read: Table 2, 30 minutes pre-exposure, read-out: EDEC50 (μM) of compounds in thymocyte apoptosis assay (first value in cell) (converted).
Setting [5] is: Table 1, 30 minutes pre-exposure, read-out: EDEC50 (μM) of compounds in thymocyte apoptosis assay.
The mark [6] stands for this setting: mouse thymocytes treated with DEX, FIG. 5.

Structures can show the parent of a compound that is named as a salt. Where two headings read alike, the source gives them in different places.

For the compound `c1ccc2c(c1)sc1nc(-c3ccc(C4CCCC4)cc3)cn12` [Compound 8, 2-(4-Cyclopentyl-phenyl)-imidzxo[2,1-b]benzothiazoles hydrobromide salt], the viability at 10 µM in the data set with Murine thymocytes is 36%.
The same measure, in the same setting: in the case of `c1coc(-c2cn3c(n2)sc2ccccc23)c1` [Compound 3, 2-Furan-2-yl-imidazo[2,1-b]benzothiazole hydrobromide salt] it was 16%.
For `Cc1ccc(-c2nc3sc4ccccc4n3c2Br)cc1` [Compound 6, 3-Bromo-2-p-tolyl-imidazo[2,1-b]benzothiazole], the viability at 5 µM in the data set on Murine thymocytes was found to be 24%.
For `C[C@@H]1C[C@H]2[C@@H]3CCC4=CC(=O)C=C[C@]4(C)[C@@]3(F)[C@@H](O)C[C@]2(C)[C@@]1(O)C(=O)CO` [Dexamethasone, reference compound], in data set [1] (mouse thymocytes, DEX treatment alone), the “Increase of PUMA mRNA upon treatment” value is “over 9 fold”.
`Cc1ccc(-c2cn3c4c(sc3n2)CCCC4)cc1` [IBT]: in data set [2], the “Effect against fludarabine-induced apoptosis” value is reported as “protective effect” and the “Effect against spontaneous apoptosis” value is recorded as “protective effect”.
With `Cc1ccc(-c2cn3c(n2)sc2cc(O)ccc23)cc1` [Compound 4, 2-p-Tolyl-benzo[d]imidazo[2,1-b]thiazol-7-ol], the viability at 5 µM in the data set with Murine thymocytes stood at 19%.
In the case of `Brc1ccc(-c2cn3c(n2)sc2ccccc23)cc1` [Compound 5], the viability at 10 µM in the data set on Murine thymocytes was found to be 22%.
As to `Cc1ccc(C(=O)Cn2c3c(sc2=N)CCCC3)cc1` [PFT-α, 2-(2-imino-4,5,6,7-tetrahydro-benzothiazol-3-yl)-1-p-tolyl-ethanone hydrobromide, reference compound], the “PUMA protein expression (western blot)” value in the data set with PUMA was “partial inhibition”. Also, the “Stability under physiologic conditions” value in data set [3] is “not stable”.
Turning to `Cc1ccc(-c2cn3c(n2)sc2ccccc23)cc1` [Compound 13], the EC50 in the data set on Murine thymocytes (setting [4]) is 1.22 µM. Moreover, the viability at 5 µM in the data set with Murine thymocytes was found to be 73%.
Take `c1ccc(-c2cn3c(n2)sc2ccccc23)cc1` [Compound 12]: the EC50 with Murine thymocytes (setting [5]) is 10.2 µM. For the same compound, the viability at 10 µM in the data set with Murine thymocytes was found to be 73%.
Regarding `c1ccc2cc(-c3ccc(-c4cn5c(n4)sc4ccccc45)cc3)ccc2c1` [Compound 14], the EC50 in the data set with Murine thymocytes (setting [4]) was 4.02 µM. In addition, the viability at 5 µM with Murine thymocytes was determined as 75%.
With `Cc1ccc(-c2cn3c(n2)sc2cc(Br)ccc23)cc1` [Compound 9, 7-Bromo-2-p-tolylimidazo[2,1-b]benzothiazole hydrobromide salt], in the data set with Murine thymocytes, the viability at 10 µM worked out at 39%.
As to `COc1ccc2c(c1)sc1nc(-c3ccc(C)cc3)cn12` [Compound 11, 7-Methoxy-2-p-tolyl-imidazo[2,1-b]benzothiazole hydrobromide salt], in the data set with Murine thymocytes (setting [5]), the EC50 is 4.44 µM. The viability at 5 µM in the data set on Murine thymocytes worked out at 68%.
As for `Br.c1ccc2c(c1)sc1nc(-c3ccc(N4CCCC4)cc3)cn12` [Compound 15, 2-(4-Pyrrolidin-1-yl-phenyl)-benzo[d]imidazo[2,1-b]thiazole hydrobromide salt], in the data set on Murine thymocytes (setting [4]), the EC50 is 0.35 µM. Further, the viability at 5 µM with Murine thymocytes stood at 78%. Moreover, in data set [1] (setting [6]), the “mRNA level of bax and killer relative to control” value is given as “below it”; the “mRNA level of proapoptotic genes (Bax, PUMA, noxa, DR5) relative to control” value is recorded as “close to that of the control”. Further, the “PUMA protein expression (western blot)” value in the data set with PUMA was “total inhibition”.
Turning to `Cc1ccc(-c2cn3c(n2)sc2cc(N)ccc23)cc1` [Compound 7, 2-p-Tolyl-imidazo[2,1-b]benzothiazol-7-ylamine], the viability at 10 µM with Murine thymocytes is 27%.
As for `c1ccc(-c2ccc(-c3cn4c(n3)sc3ccccc34)cc2)cc1` [Compound 10], the EC50 with Murine thymocytes (setting [4]) was 8.12 µM. Moreover, the viability at 10 µM in the data set with Murine thymocytes was 59%.

The values above are taken from US7601846B2, “Compounds having activity as inhibitors of apoptosis” (The Regents of the University of California, priority 2001, dated 2009).
